Results reported in US10519148B2, “Acrylic acid derivative, preparation method and use in medicine thereof” (Zhejiang Hisun Pharmaceutical Co., Ltd., priority 2015, dated 2019).

Biological target: T1, recombinant human estrogen receptor ERα ligand binding domain (Homo sapiens, UniProt P03372)
T1 construct: purchased Invitrogen PV4543
T1 sequence (P03372 311-547 limits assumed): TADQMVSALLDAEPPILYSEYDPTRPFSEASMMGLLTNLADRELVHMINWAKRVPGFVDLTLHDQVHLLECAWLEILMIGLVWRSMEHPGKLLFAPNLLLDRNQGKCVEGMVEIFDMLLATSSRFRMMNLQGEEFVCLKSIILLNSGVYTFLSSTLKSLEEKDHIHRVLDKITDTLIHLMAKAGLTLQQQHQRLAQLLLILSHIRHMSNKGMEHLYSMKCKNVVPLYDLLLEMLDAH
Assay: LanthaScreen TR-FRET competition binding assay with estrogen receptor ERα ligand binding domain
Conditions: TR-FRET competition with Fluormone ES2, ERα-LBD (GST); read-out: IC50 (nM) ER Reporter
Description: The present invention utilizes the Lantha Screen™ Time-resolved Fluorescence Resonance Energy Transfer (TR-FRET) to assess the ability of the compounds to bind to the isolated ligand domain of estrogen receptor Era in competition assay. The fluorophore (Fluormone ES2, product code P2645) and the recombinant human estrogen receptor ERα ligand binding domain (product code PV4543) using in the TR-FRET were purchased from Invitrogen. The design principle of this assay is as follows: the estrogen receptor ERα-LBD (GST) and the fluorophore-containing ligand form a receptor/fluorophore complex, followed by the addition of terbium (Tb)-labeled anti-GST antibody (product code PV3551), the indirect labeling of the receptor is achieved by the linkage with the GST on the receptor, and the ability of competitive coordination between the test compound and the fluorescent ligand with the receptor is evaluated by detecting the attenuation of the TR-FRET effect between the chromophore (Tb-anti-GST antibody) on the fluorescent label ERα and the fluorescent ligand (Fluormone ES2). We used the following sample preparation and test methods for the test of the synthesized compounds. The instrument we used is Beckman Coulter BioPAPTR FRD microfluidic workstation.
(1) Acoustic dispense 120 nL of the test compound into a black low volume 384 well assay plates;
(2) Preparation of 1×ERα-LBD/Tb-anti-GST antibody complex in ES2 buffer and incubation therein for 20 minutes;
(3) The 1×ES2 was further added to the above ERα-LBD/Tb-anti-GST antibody complex solution before the test;
(4) 12 μL of the ERα-LBD/Tb-anti-GST antibody complex solution prepared in step 3 was added to the wells of the assay plate;
(5) The plates were shielded from light and incubated at room temperature for one hour; (6) At 337 nm excitation light, the emission light at 490 nm and 520 nm was detected by BMG Phera STAR.
The test compounds of a series of concentrations (10 mM, 0.1 mM, 1 μM and 10 nM) prepared on a microplate were transferred to the analytical plate using Labcyte Echo 550. 120 nL of DMSO solution for each test compound was added to each well of the assay plate and tested at 12 different concentrations (100, 29.17, 10.42, 2.083, 1, 0.292, 0.104, 0.02083, 0.01, 0.0029, 0.00104, 0.001 μM). The TR-FRET primitive fluorescence data was used to obtain the fitting curve software such as Origin or Genedata. Half maximal inhibitory concentration IC50 of each compound was used to characterize the competitive binding ability of the test compound with the estrogen receptor ERα. IC50 represents the concentration of the test compound that was calculated when the coordination of the tracer fluorophore (ES2) with the estrogen receptor was reduced by 50%, and the IC50 was determined as shown in Table 3.

SMILES | IC50 [nM]
C[C@@H]1Cc2c([nH]c3ccccc23)[C@@H](c2c(F)cc(/C=C/C(=O)O)cc2F)N1CC1(F)CC1 [Example 1, (E)-3-(3,5-difluoro-4-((1R,3R)-2-((1-fluorocyclopropyl)methyl)-3-methyl-2,3,4,9-tetrahydro-1H-pyrido[3,4-b]indol-1-yl)phenyl)acrylic acid] | 0.1 to 10
C[C@@H]1Cc2c([nH]c3cccc(F)c23)[C@@H](c2c(F)cc(/C=C/C(=O)O)cc2F)N1CC1(F)CC1 [Example 12, (E)-3-(3,5-difluoro-4-((1R,3R)-5-fluoro-2-((1-fluorocyclopropyl)methyl)-3-methyl-2,3,4,9-tetrahydro-1H-pyrido[3,4-b]indol-1-yl)phenyl)acrylic acid] | 0.1 to 10
